Data published in patent US9943506B2, “BCL6 inhibitors as anticancer agents” (Cornell University, priority 2013, dated 2018).
Read-outs that look alike come from different tables or passages of the source.

Columns and labels:
Ly10 DLBCL cells = experiment: Growth inhibition of DLBCL cells, Ly10; format: cell-based; details: Table 2, BCL-6 dependent, 48 hours
Method: (§1) 50,000 cells per well were treated for 48 hours with different concentrations of the compounds in 96 well plates, using DMSO as a control. Then, viability was determined with Cell Titer Blue™ (Promega) and growth inhibition was calculated as the percentage of viable cells with respect to cells treated with DMSO alone. GI50 values were determined by dose-response curves.
(§2) 293T cells were grown in Dulbecco's modified Eagles medium supplemented with 10% fetal bovine serum (FBS) (Gemini Bio-Products, Woodland, Calif.) and 1% penicillin-streptomycin. DLBCL cell lines OCI-Ly1, OCI-Ly1-B50, OCI-Ly7, OCI-Ly10 and OCI-Ly19 were grown in 80% Iscove's medium, 20% FBS and penicillin G/streptomycin. DLBCL cell lines Toledo, Farage, SU-DHL4, DOHH-2, SC-1, RCK8, TMD8, HBL-1, Ly3, Karpas 422 and SU-DHL6 were cultured in 90% RPMI medium, 10% FBS, 2 mM glutamine, 10 mM Hepes and penicillin G/streptomycin. All cell lines were cultured at 37° C. in a humidified atmosphere of 5% CO2.

Karpas 422 DLBCL cells = experiment: Growth inhibition of DLBCL cells, Karpas 422; format: cell-based; details: Homo sapiens, read-out: GI50 Karpas 422
Method: as §1, §2

Ly7 DLBCL cells = experiment: Growth inhibition of DLBCL cells, Ly7; format: cell-based
Method: as §1, §2

Ly3 DLBCL cells = experiment: Growth inhibition of DLBCL cells, Ly3; format: cell-based
Method: as §1, §2

SUDHL6 DLBCL cells = experiment: Growth inhibition of DLBCL cells, SUDHL6; format: cell-based; details: Homo sapiens, SU-DHL-6
Method: as §1, §2

Toledo DLBCL cells = experiment: Growth inhibition of DLBCL cells, Toledo; format: cell-based; details: Homo sapiens
Method: as §1, §2

Ly1B50 DLBCL cells = experiment: Growth inhibition of DLBCL cells, Ly1B50; format: cell-based; details: Table 2; BCL-6 independent; 48 hours
Method: as §1, §2

WSU-DLCL2 DLBCL cells = experiment: Growth inhibition of DLBCL cells, WSU-DLCL2; format: cell-based; details: Homo sapiens, WSUDLCL2; Table 8; Bcl-6 independent
Method: as §1

BCL6-BTB = BCL6-BTB (Homo sapiens, UniProt P41182); experiment: MicroScale Thermophoresis binding to BCL6-BTB; details: Table 5
Method: BCL6 is also required for normal development of germinal center (GC) B-cells.
Recombinant BCL6-BTB was labeled using the RED-NHS Labeling kit (NanoTemper Technologies). […] The label:protein ratio was determined using photometry at 650 nm and Bradford reagent. […] The labeled BCL6-BTB was adjusted to 400 nM with PBS (Thermo) buffer supplemented with 0.05% Tween-80 (Fisher scientific). […] After 10 min incubation, approximately 4 μL of each solution was filled into Monolith NT Standard Treated Capillaries (NanoTemper Technologies GmbH). Thermophoresis was measured using a Monolith NT.115 instrument (NanoTemper Technologies GmbH) at an ambient temperature of 25° C. with 5 s/30 s/5 s laser off/on/off times, respectively. Instrument parameters were adjusted with 90% LED power and 40% MST power. Data of three independent experiments were analyzed (NT.Analysis software version 1.5.41, NanoTemper Technologies) using the signal from Thermophoresis.

[1] = Table 2, BCL-6 independent, 48 hours
[2] = Table 2, BCL-6 dependent, 48 hours
[3] = Table 2, BCL-6 dependent, 48 hours, read-out: GI50 SUDH6
[4] = 48 h, Table 2, BCL-6 independent
[5] = Table 7, BCL6 dependent, read-out: GI50 SUDHL6
[6] = Table 8, Bcl-6 dependent, read-out: GI50 SUDH6

Compound | GI50 (Karpas 422 DLBCL cells; [1]) [µM] | GI50 (SUDHL6 DLBCL cells; [3]) [µM] | GI50 (Karpas 422 DLBCL cells; Table 8, Bcl-6 independent) [µM] | GI50 (SUDHL6 DLBCL cells; [5]) [µM] | GI50 (SUDHL6 DLBCL cells; [6]) [µM] | Kd (BCL6-BTB) [µM] | GI50 (SUDHL6 DLBCL cells; Table 5, BCL6 dependent, read-out: GI50 SUDHL6) [µM] | GI50 (Ly10 DLBCL cells) [µM] | GI50 (Ly7 DLBCL cells; 48 h, Table 2, BCL-6 dependent) [µM] | GI50 (Ly3 DLBCL cells; [2]) [µM] | GI50 (Toledo DLBCL cells; [4]) [µM] | GI50 (Ly1B50 DLBCL cells) [µM] | GI50 (Ly7 DLBCL cells; Table 7, BCL6 dependent) [µM] | GI50 (Ly7 DLBCL cells; Table 8, Bcl-6 dependent) [µM] | GI50 (Ly3 DLBCL cells; Table 8, Bcl-6 dependent) [µM] | GI50 (WSU-DLCL2 DLBCL cells) [µM] | GI50 (Toledo DLBCL cells; Table 7, BCL6 independent) [µM] | GI50 (Toledo DLBCL cells; Table 8, Bcl-6 independent) [µM] | GI50 (Ly7 DLBCL cells; Table 5, BCL6 dependent) [µM] | GI50 (Toledo DLBCL cells; Table 5, BCL6 independent) [µM]
O=C(O)CN1C(=O)/C(=C2/C(=O)Nc3ccc(F)cc32)SC1=S [Compound 2033, (Z)-2-(5-(5-Fluoro-2-oxoindolin-3-ylidene)-4-oxo-2-thioxothiazolidin-3-yl)acetic acid] | > 40 | > 40 |  |  |  |  |  | > 40 | > 40 | > 40 | > 40 | > 40 |  |  |  |  |  |  |  | 
O=C(O)CN1C(=O)/C(=C2/C(=O)Nc3c(F)cccc32)SC1=S [Compound 2035, (Z)-2-(5-(7-Fluoro-2-oxoindolin-3-ylidene)-4-oxo-2-thioxothiazolidin-3-yl)acetic acid] | > 40 | > 40 |  |  |  |  |  | > 40 | > 40 | > 40 | > 40 | > 40 |  |  |  |  |  |  |  | 
O=C(O)CN1C(=O)/C(=C2/C(=O)Nc3c(Cl)cccc32)SC1=S [Compound 2037, (Z)-2-(5-(7-Chloro-2-oxoindolin-3-ylidene)-4-oxo-2-thioxothiazolidin-3-yl)acetic acid] | > 40 | > 40 |  |  |  |  |  | > 40 | > 40 | > 40 | > 40 | > 40 |  |  |  |  |  |  |  | 
O=C(O)CN1C(=O)/C(=C2/C(=O)Nc3c(Cl)cc(Cl)cc32)SC1=S [Compound 2039, (Z)-2-(5-(5,7-Dichloro-2-oxoindolin-3-ylidene)-4-oxo-2-thioxothiazolidin-3-yl)acetic acid] | > 40 | > 40 |  |  |  |  |  | > 40 | > 40 | > 40 | > 40 | > 40 |  |  |  |  |  |  |  | 
O=C(O)CN1C(=O)/C(=C2/C(=O)Nc3ccc(Br)cc32)SC1=S [Compound 2041, (Z)-2-(5-(5-Bromo-2-oxoindolin-3-ylidene)-4-oxo-2-thioxothiazolidin-3-yl)acetic acid] | > 40 | > 40 |  |  |  |  |  | > 40 | > 40 | > 40 | > 40 | > 40 |  |  |  |  |  |  |  | 

Now from value to compound, other results behind:

GI50 (Karpas 422 DLBCL cells; [1]) [µM] | GI50 (SUDHL6 DLBCL cells; [3]) [µM] | GI50 (Karpas 422 DLBCL cells; Table 8, Bcl-6 independent) [µM] | GI50 (SUDHL6 DLBCL cells; [5]) [µM] | GI50 (SUDHL6 DLBCL cells; [6]) [µM] | Kd (BCL6-BTB) [µM] | GI50 (SUDHL6 DLBCL cells; Table 5, BCL6 dependent, read-out: GI50 SUDHL6) [µM] | Compound | GI50 (Ly10 DLBCL cells) [µM] | GI50 (Ly7 DLBCL cells; 48 h, Table 2, BCL-6 dependent) [µM] | GI50 (Ly3 DLBCL cells; [2]) [µM] | GI50 (Toledo DLBCL cells; [4]) [µM] | GI50 (Ly1B50 DLBCL cells) [µM] | GI50 (Ly7 DLBCL cells; Table 7, BCL6 dependent) [µM] | GI50 (Ly7 DLBCL cells; Table 8, Bcl-6 dependent) [µM] | GI50 (Ly3 DLBCL cells; Table 8, Bcl-6 dependent) [µM] | GI50 (WSU-DLCL2 DLBCL cells) [µM] | GI50 (Toledo DLBCL cells; Table 7, BCL6 independent) [µM] | GI50 (Toledo DLBCL cells; Table 8, Bcl-6 independent) [µM] | GI50 (Ly7 DLBCL cells; Table 5, BCL6 dependent) [µM] | GI50 (Toledo DLBCL cells; Table 5, BCL6 independent) [µM]
 |  | > 40 | 35 | 10 ± 1 |  |  | O=C(CN1C(=O)C(=O)c2cc(Cl)ccc21)OCc1ccccc1 [Compound 2071] |  |  |  |  |  | 53 | 26 ± 1 | > 40 | > 40 | > 125 | > 40 |  | 
 |  | > 40 | 30 | 17 ± 1 |  |  | O=C(CN1C(=O)C(=O)c2cc(F)ccc21)OCc1ccccc1 [Compound 2073] |  |  |  |  |  | 30 | 36 ± 7 | > 40 | > 40 | 40 | > 40 |  | 
 |  | > 30 |  | > 30 |  |  | O=C(O)CCN1C(=O)/C(=C2/C(=O)N(CC(=O)OCc3ccccc3)c3ccc(F)cc32)SC1=S [Compound 2097] |  |  |  |  |  |  | > 30 | > 30 | > 30 |  | > 30 |  | 
 |  | > 30 |  | > 30 | 5.5 ± 0.7 | 30 ± 7 | O=C(O)CCN1C(=O)/C(=C2/C(=O)N(CC(=O)OCc3ccccc3)c3ccc(Cl)cc32)SC1=S [Compound 2099] |  |  |  |  |  |  | > 30 | > 30 | > 30 |  | > 30 | 65 | 75
 |  | > 30 |  | > 30 |  |  | O=C(O)CCN1C(=O)/C(=C2/C(=O)N(CC(=O)OCc3ccccc3)c3ccc(Br)cc32)SC1=S [Compound 2101] |  |  |  |  |  |  | > 30 | > 30 | > 30 |  | > 30 |  | 
